This is an account of results in patent publication US8507555B2, “Non-toxic anti-cancer drug combining ascorbate, magnesium and a naphthoquinone” (Summa Health System, priority 2006, dated 2013).

Where two headings read alike, the source gives them in different places. A value given as a limit tells only on which side of the number the result lay.

In test [1] the test system is DU145 Prostate Cancer Cells. Kind of test: MTT cytotoxicity assay, DU145 prostate cancer cells. Type of test: cell-based, human. The following applies: read-out: CD50, vitamin alone. On the procedure:
(§1) The effect of the new Mg-containing formulation, which combined MgVC2+VK3, on proliferation and survival of cancer cells was evaluated was then evaluated using the MTT assay, a […] assay that measures the number of viable cells in a cell sample. 3-[4,5-dimethylthiazol-2-yl]-2,5-diphenyltetrazolium bromide (MTT) is a chromogen that is converted to a measurable colored product by viable cells. Therefore, the amount of color measured is proportional to the number of viable cells. This assay has been used widely to assess the cytotoxicity and selectivity of anti-cancer drugs because MTT is suitable for rapid toxicity characterization of new drug candidates and formulations. One way of assigning a cytotoxic activity to an agent is by converting the raw date to a CD50 value, which represent the amount (dose) of the agent needed to achieve 50% of the maximal cytotoxic activity. A lower CD50 indicates a greater cytotoxic activity (as a lower amount of the agent is needed to achieve a fixed level of cytotoxicity). Two agents can be compared by examining the fold-increase or decrease in their CD50 values.
(§2) To evaluate the antitumor activity at a MgVC2:VK3 ratio of […], MgVC was combined with VK3 at a MgVC2:VK3 ratio of 100:1 (which is effectively a VC:VK3 ratio of 200:1). The NaVC:K3 formulation was prepared at a ratio of 200:1.
The antitumor activity of the two formulations against a human androgen-independent prostate cancer cell line DU145 was evaluated in the MTT assay.

The test system of the next test is HS68 Fibroblasts. The experiment in a line: MTT cytotoxicity assay, HS68 fibroblasts. The following applies: read-out: CD50, vitamin alone. Type of test: cell-based. On the procedure:
as §1, §2
This indicates a selectivity for tumor vs. “normal” cells.

A further test concerns DNase I. The settings on record: tumor cells; cited from earlier work.
Where [2] appears, read: Homo sapiens, DU-145, 24 h, 1 day.
Setting [3] is: Homo sapiens, DU-145, 48 h, 2 days.
Setting [4] is: Homo sapiens, DU-145, 72 h, 3 days.

For magnesium ascorbate [MgVC2], the IC50 came to 2510 µM in test [1] (1 day); 1150 µM in test [1] (2 days); 432 µM in test [1] (3 days); 1660 µM in the test with HS68 Fibroblasts (1 day); 1750 µM with HS68 Fibroblasts (2 days); 1500 µM in the test on HS68 Fibroblasts (3 days).
Consider `O=C1O[C@H]([C@@H](O)CO)C(O)=C1O` [NaVC, sodium ascorbate], for which the IC50 in test [1] (setting [2]) was found to be 3070 µM; in test [1] (setting [3]) it was 1480 µM; in test [1] (setting [4]) it was 994 µM; in the test with HS68 Fibroblasts (Homo sapiens, 24 h, 1 day), 1470 µM; in the test on HS68 Fibroblasts (Homo sapiens, 48 h, 2 days), 1240 µM; in the test with HS68 Fibroblasts (Homo sapiens, 72 h, 3 days), 1180 µM.
With `CC1=CC(=O)c2ccccc2C1=O` [VK3, 2-methyl-1,4-naphthoquinone], the IC50 in test [1] (setting [2]) is 37.5 µM; in test [1] (setting [3]), 37.5 µM; in test [1] (setting [4]), 37.5 µM; in the test on HS68 Fibroblasts (Homo sapiens, 24 h, 1 day), 18.7 µM; in the test on HS68 Fibroblasts (Homo sapiens, 48 h, 2 days) it was 19 µM; in the test with HS68 Fibroblasts (Homo sapiens, 72 h, 3 days), 18.7 µM. In the test on DNase I, the “time of exposure to re-expression of latent DNase I activity” value was not above 15 min.
